Laboratory results from the supplement of paper PMC10331698.
± gives the standard deviation of the averaged measurements.

How the values were obtained:
Perfluorooctanoic acid = compound: O=C(O)C(F)(F)C(F)(F)C(F)(F)C(F)(F)C(F)(F)C(F)(F)C(F)(F)F [Perfluorooctanoic acid]; experiment: level (log10 ratio to DMSO vehicle control); higher = higher biomarker level / cell amount than vehicle control; conditions: in DMSO
Procedure: (§1)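 BioMAP Diversity Plus panel of 12 human primary cell co-culture systems (3C, 4H, LPS, SAg, BT, BF4T, BE3C, CASM3C, HDF3CGF, KF3CT, MyoF, Mphg). Compounds were added 1 h before stimulation and left for 24 h (MyoF 48 h; BT 72 h for soluble read-outs or 6 d for IgG). Biomarkers were read by ELISA, cytotoxicity by SRB, PBMC viability and proliferation by Alamar Blue. Each well value was divided by the mean of 8 DMSO control wells on the same plate and log10 transformed; duplicate blinded samples were tested at 4 concentrations.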

[1] = compound: C=CC(=O)OCC(F)(F)C(F)(F)C(F)(F)C(F)(F)C(F)(F)C(F)(F)C(F)(F)C(F)F [1H,1H,9H-Perfluorononyl acrylate]; experiment: as above; conditions: in DMSO
Procedure: as §1

Row | Test System | level (log10) (Perfluorooctanoic acid; 6700 nM) | level (log10) (Perfluorooctanoic acid; 20000 nM) | level (log10) (Perfluorooctanoic acid; 60000 nM) | level (log10) ([1]; 6700 nM) | level (log10) ([1]; 20000 nM) | level (log10) ([1]; 60000 nM)
1 | 3C:CD87/uPAR | -0.0005 ± 0.0021 | -0.0035 ± 0.005 | -0.0425 ± 0.0021 | 0.012 ± 0.04 | 0.016 ± 0.013 | 0.017 ± 0.0099
2 | 3C:CXCL8/IL-8 | 0.0295 ± 0.035 | 0.0585 ± 0.026 | 0.154 ± 0.0057 | 0.001 ± 0.03 | 0.02 ± 0.023 | 0.029 ± 0.033
3 | 3C:CXCL9/MIG | 0.001 ± 0.021 | 0.0095 ± 0.023 | 0.0265 ± 0.022 | 0.009 ± 0.0028 | 0.0005 ± 0.011 | -0.0055 ± 0.005
4 | 3C:HLA-DR | 0.0035 ± 0.0092 | -0.008 ± 0.028 | 0.0155 ± 0.043 | -0.002 ± 0.0085 | 0.0155 ± 0.0021 | -0.0055 ± 0.005
5 | 3C:Proliferation | -0.0155 ± 0.015 | -0.003 ± 0.0099 | -0.08 ± 0.02 | -0.092 ± 0.031 | -0.186 ± 0.021 | -0.415 ± 0.013
6 | 3C:SRB | -0.017 ± 0.0042 | 0.0045 ± 0.019 | -0.102 ± 0.044 | 0.0015 ± 0.0078 | 0.016 ± 0.0042 | -0.014 ± 0.023
7 | 4H:CCL2/MCP-1 | -0.028 ± 0.0071 | -0.0395 ± 0.013 | -0.0555 ± 0.054 | -0.0255 ± 0.0064 | -0.0105 ± 0.028 | 0.0245 ± 0.019
8 | 4H:CCL26/Eotaxin-3 | 0.0215 ± 0.087 | -0.022 ± 0.12 | -0.0255 ± 0.14 | -0.0045 ± 0.0035 | -0.016 ± 0.031 | -0.052 ± 0.024
9 | 4H:CD62P/P-selectin | -0.005 ± 0.013 | 0.001 ± 0.0014 | 0.05 ± 0.02 | -0.0135 ± 0.037 | -0.045 ± 0.011 | -0.109
10 | 4H:CD87/uPAR | -0.0695 ± 0.053 | -0.0395 ± 0.1 | -0.083 ± 0.048 | -0.024 ± 0.035 | -0.043 ± 0.028 | -0.034 ± 0.061
11 | 4H:CD106/VCAM-1 | 0.0045 ± 0.022 | -0.001 ± 0.034 | -0.0165 ± 0.039 | -0.02 ± 0.0071 | -0.023 ± 0.0028 | -0.0425 ± 0.03
12 | 4H:SRB | -0.013 ± 0.0071 | -0.004 ± 0.023 | -0.038 ± 0.031 | -0.008 ± 0.0042 | -0.008 ± 0.0014 | -0.0235 ± 0.0021
13 | 4H:VEGFR2 | 0.019 ± 0.0099 | 0.0055 ± 0.042 | 0.0205 ± 0.033 | -0.018 ± 0.014 | -0.009 ± 0.057 | 0.0045 ± 0.03
14 | BE3C:CD54/ICAM-1 | -0.02 ± 0.0085 | -0.0085 ± 0.0035 | 0.0235 ± 0.039 | -0.01 ± 0.0042 | -0.0095 ± 0.013 | -0.0165 ± 0.011
15 | BE3C:CD87/uPAR | -0.039 ± 0.057 | -0.028 ± 0.072 | 0.0245 ± 0.023 | 0.0055 ± 0.023 | 0.0395 ± 0.012 | 0.0365 ± 0.016
16 | BE3C:CXCL8/IL-8 | -0.029 ± 0.055 | -0.0165 ± 0.057 | -0.0385 ± 0.0035 | -0.0165 ± 0.016 | -0.012 ± 0.013 | -0.004 ± 0.024
17 | BE3C:CXCL9/MIG | -0.0025 ± 0.0035 | -0.0045 ± 0.005 | 0.002 ± 0.018 | 0.008 ± 0.0028 | 0.0055 ± 0.0078 | 0.0035 ± 0.0021

Row | Test System | level (log10) (Perfluorooctanoic acid; 6700 nM) | level (log10) (Perfluorooctanoic acid; 20000 nM) | level (log10) (Perfluorooctanoic acid; 60000 nM) | level (log10) ([1]; 6700 nM) | level (log10) ([1]; 20000 nM) | level (log10) ([1]; 60000 nM)
18 | BE3C:CXCL10/IP-10 | -0.021 ± 0.017 | -0.0275 ± 0.013 | -0.118 ± 0.022 | -0.01 ± 0.016 | 0 ± 0.0014 | -0.005 ± 0.0099
19 | BE3C:CXCL11/I-TAC | -0.0225 ± 0.032 | -0.0225 ± 0.029 | -0.0095 ± 0.016 | 0.0045 ± 0.00071 | 0.0085 ± 0.013 | -0.005 ± 0.0085
20 | BE3C:EGFR | -0.0165 ± 0.012 | -0.025 ± 0.011 | -0.018 ± 0.037 | -0.0025 ± 0.005 | 0.003 ± 0.0071 | -0.014 ± 0.023
21 | BE3C:HLA-DR | -0.023 ± 0.0042 | -0.0225 ± 0.023 | -0.013 ± 0.034 | -0.0215 ± 0.029 | -0.01 ± 0.021 | -0.0305 ± 0.012
22 | BE3C:IL-1alpha | 0.0075 ± 0.00071 | -0.0035 ± 0.0035 | 0.0185 ± 0.016 | -0.01 ± 0.0085 | -0.021 ± 0.018 | -0.03 ± 0.021
23 | BF4T:CCL2/MCP-1 | 0.0265 ± 0.018 | 0.015 ± 0.013 | -0.0835 ± 0.039 | -0.015 ± 0.047 | -0.0035 ± 0.0035 | 0.0155 ± 0.026
24 | BF4T:CCL26/Eotaxin-3 | -0.023 ± 0.023 | -0.073 ± 0.013 | -0.11 ± 0.06 | -0.0095 ± 0.061 | -0.066 ± 0.078 | -0.084 ± 0.018
25 | BF4T:CD54/ICAM-1 | -0.0115 ± 0.0064 | -0.0025 ± 0.012 | -0.014 ± 0.028 | -0.0365 ± 0.033 | -0.0385 ± 0.049 | -0.0455 ± 0.019
26 | BF4T:CD90 | -0.0095 ± 0.022 | -0.006 ± 0.0028 | -0.0105 ± 0.019 | -0.0085 ± 0.016 | 0.005 ± 0.0071 | -0.022 ± 0.0071
27 | BF4T:CD106/VCAM-1 | -0.037 ± 0.017 | -0.0345 ± 0.032 | 0 ± 0.065 | -0.007 ± 0.0071 | -0.0165 ± 0.04 | 0.0185 ± 0.066
28 | BF4T:CXCL8/IL-8 | -0.0035 ± 0.013 | -0.0085 ± 0.0035 | -0.0025 ± 0.016 | -0.0025 ± 0.061 | 0.0315 ± 0.053 | 0.0175 ± 0.012
29 | BF4T:IL-1alpha | -0.009 ± 0.0057 | -0.0125 ± 0.018 | -0.0055 ± 0.018 | 0.007 ± 0.0071 | 0.017 ± 0.014 | 0.005 ± 0.013
30 | BF4T:Keratin 8/18 | -0.0045 ± 0.012 | -0.0025 ± 0.0092 | 0.0025 ± 0.022 | -0.022 ± 0.013 | -0.007 ± 0.013 | -0.0385 ± 0.037
31 | BF4T:MMP-1 | -0.002 ± 0.0057 | -0.0005 ± 0.0078 | 0.0265 ± 0.018 | -0.0185 ± 0.0021 | -0.0005 ± 0.005 | 0.001 ± 0.0057
32 | BF4T:MMP-3 | -0.007 ± 0.018 | 0.007 ± 0.0028 | 0.023 ± 0.021 | 0.013 ± 0.013 | -0.003 ± 0.045 | 0.021 ± 0.0085
33 | BF4T:MMP-9 | -0.006 ± 0.0057 | 0.02 ± 0.013 | 0.0215 ± 0.013 | 0.0145 ± 0.019 | 0.0235 ± 0.019 | 0.031 ± 0.0014
34 | BF4T:PAI-I | 0.0005 ± 0.0021 | 0.0015 ± 0.0021 | -0.007 ± 0.0099 | 0.007 ± 0.0057 | 0.003 ± 0.0085 | 0.0005 ± 0.012
